Assay results: patent US12220461B2, “Polypeptide-coupled small molecule compound and antiviral application thereof” (Guangzhou Medical University, priority 2023, dated 2025)
Starred links: 1 amine or outer side, 2 acyl side, 3 side chain; linkers in the order of their positions; H or OH if unused. Non-standard residues stand in square brackets, D forms with d. Residues, ends and D or L forms follow the SMILES beside them. ξ: configuration not given here. *: point of attachment. X1 = Cc1ccc(N[*:1])cc1C(=O)[*:2]; X2 = C[C@@H](N*)c1cccc2ccccc12; ξR = N=C(N)NCCCC(N)C(=O)O; ξL = CC(C)CC(N)C(=O)O; ξS = NC(CO)C(=O)O

Test system: Omicron BA5.2 variant of SARS-CoV-2
Assay type: cell-based

Cc1ccc(NC(=O)CNC(=O)CNC(=O)C(CCCNC(=N)N)NC(=O)C(CC(C)C)NC(=O)C(CCCNC(=N)N)NC(=O)C(N)CO)cc1C(=O)N[C@H](C)c1cccc2ccccc12 (stereo partly shown) [RG-17] (H-[ξS][ξR][ξL][ξR]GG[X1]-X2)
IC50 for inhibition of replication of the SARS-CoV-2 genome (qPCR): lower than GRL0617
